In patent US10351601B2, “CXCR4 antagonists and methods of use” (Mainline Biosciences, priority 2016, dated 2019):
pIC50: −log10 of the molar value. Read-outs that look alike come from different tables or passages of the source. Bridge positions count the residues as written; N and C are the ends. Square brackets hold non-standard residues; d marks the D form. Peptide text beside a SMILES is read from it. * marks the point of attachment. 2Nal = N[C@@H](Cc1ccc2ccccc2c1)C(=O)O; Lys(iPr) = CC(C)NCCCC[C@H](N)C(=O)O; hCys = N[C@@H](CCS)C(=O)O; Bz = O=C(c1ccccc1)*; Mpa = O=C(O)CCS

Molecular target: T1, Human chemokine receptor CXCR4 (Homo sapiens, UniProt P61073)
T1 construct: expressed in transfected cells; host or cells: Chem-1 cells (membranes)
T1 sequence (P61073 whole entry): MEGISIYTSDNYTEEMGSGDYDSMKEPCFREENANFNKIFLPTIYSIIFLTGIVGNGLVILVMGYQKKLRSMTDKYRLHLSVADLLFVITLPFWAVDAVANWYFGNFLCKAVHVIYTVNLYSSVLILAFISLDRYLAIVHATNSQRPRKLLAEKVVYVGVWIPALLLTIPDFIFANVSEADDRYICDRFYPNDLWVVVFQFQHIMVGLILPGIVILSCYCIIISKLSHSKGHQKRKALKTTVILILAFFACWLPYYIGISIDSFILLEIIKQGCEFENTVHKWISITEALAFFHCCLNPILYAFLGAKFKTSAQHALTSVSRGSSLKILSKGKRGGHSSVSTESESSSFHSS
Test: Human CXCR4/125I-SDF-1α binding inhibition assay
Protocol: “Ki” values are calculated using IC50 values determined in the CXCR4/^125I-SDF-1α binding assay described below by employing equation 7.22 of Enzymes, A Practical Introduction to Structure, Mechanism, and Data Analysis, Robert A. Copeland, Wiley-VCH, New York, 1996, page 207.
Human CXCR4/^125I-SDF-1α Binding Inhibition Assay:
Human chemokine receptor CXCR4 expressed in Chem-1 cells were used in modified HEPES buffer pH 7.4. A […] (Membrane protein may change from lot to lot, the concentration used were adjusted as necessary), aliquot was incubated with 0.03 nM [^125I]SDF-1α for 90 minutes at 25° C. Non-specific binding was estimated in the presence of 30 nM SDF-la. Membranes were filtered and washed, filters were then counted to determine [^125I]SDF-1α specifically bound. Compounds were screened starting at 10 μM with 11-point dilutions (Valenzuela-Fernandez A, et al. J Biol Chem. 277(18):15677, 2002).

[1] = calculated from IC50 of the CXCR4/125I-SDF-1α binding assay, read-out: Binding Kb

pIC50 (CXCR4 expressed in Chem-1 cells, 0.03 nM [125I]SDF-1α, 90 minutes at 25° C., HEPES buffer pH 7.4, read-out: Binding IC50)	Compound	Kb [1]	Kb	pIC50
	CC(C)NCCCC[C@@H]1NC(=O)[C@H](Cc2ccc(O)cc2)NC(=O)CCSSC[C@@H](C(=O)N[C@H](CCCNC(=N)N)C(=O)NCC(=O)N[C@H](Cc2ccccc2)C(=O)NCC(N)=O)NC(=O)CNC(=O)[C@H](Cc2ccc3ccccc3c2)NC(=O)[C@@H](CCCNC(=N)N)NC1=O [Example 4, Cyclo[Mpa-Tyr-Lys(iPr)-(D-Arg)-2Nal-Gly-Cys]-(D-Arg)-Gly-(D-Phe)-Gly-NH2] ([Mpa]Y[Lys(iPr)][dR][2Nal]GC[dR]G[dF]G-NH2; disulfide 1-7)	0.21 nM		
< 6.00	N=C(N)NCCC[C@@H]1NC(=O)CCSSC[C@@H](C(=O)N[C@@H](CCCNC(=N)N)C(=O)NCC(=O)N[C@H](Cc2ccccc2)C(=O)NCC(N)=O)NC(=O)CNC(=O)[C@H](Cc2ccc3ccccc3c2)NC(=O)[C@H](CCCNC(=N)N)NC(=O)[C@H](Cc2ccc(O)cc2)NC1=O [Example 5, Cyclo[Mpa-Arg-Tyr-Arg-2Nal-Gly-Cys]-Arg-Gly-(D-Phe)-Gly-NH2] ([Mpa]RYR[2Nal]GCRG[dF]G-NH2; disulfide 1-7)	> 1000 nM		
	CC(C)NCCCC[C@H](NC(=O)[C@@H]1CCSSC[C@H](NC(=O)c2ccccc2)C(=O)N[C@@H](Cc2ccc(O)cc2)C(=O)N[C@@H](CCCCNC(C)C)C(=O)N[C@H](CCCNC(=N)N)C(=O)N[C@@H](Cc2ccc3ccccc3c2)C(=O)NCC(=O)N1)C(=O)NCC(N)=O [Example 12, Benzoyl-cyclo[Cys-Tyr-Lys(iPr)-(D-Arg)-2Nal-Gly-hCys]-Lys(iPr)-Gly-NH2] (Bz-CY[Lys(iPr)][dR][2Nal]G[hCys][Lys(iPr)]G-NH2; disulfide 1-7)		0.21 nM	
	CCNC(=O)CNC(=O)[C@H](CCCCNC(C)C)NC(=O)[C@@H]1CSSCC[C@H](NC(=O)c2ccccc2)C(=O)N[C@@H](Cc2ccc(O)cc2)C(=O)N[C@@H](CCCCNC(C)C)C(=O)N[C@H](CCCNC(=N)N)C(=O)N[C@@H](Cc2ccc3ccccc3c2)C(=O)NCC(=O)N1 [Example 14, Benzoyl-cyclo[hCys-Tyr-Lys(iPr)-(D-Arg)-2Nal-Gly-Cys]-Lys(iPr)-Gly-NH(Et)] (Bz-[hCys]Y[Lys(iPr)][dR][2Nal]GC[Lys(iPr)]G-NHEt; disulfide 1-7)		0.39 nM	8.89
